From patent US8337891B2, “Enteric coated composition comprising prostaglandin analogs as chloride channel opener” (Sucampo AG, priority 2003, dated 2012)

Columns and labels:
[1] = ratio of monocyclic/bicyclic tautomer in pH2 solvent by 1H-NMR; format: physicochemical
Protocol: The compound 1 (bicyclic structure, solid) was dissolved in D2O—CD3OD(1:1), which was adjusted to pH 2 with DCl. The ratio of monocyclic tautomer/bicyclic tautomer of compound 1 in the pH2 solvent was determined with ^1H-NMR.
According to the same manner described in the test example 2, the ratio of monocyclic tautomer/bicyclic tautomer of compound 2 in pH2 solvent was determined by ^1H-NMR.

[2] = tautomeric form of the solid compound; format: physicochemical; conditions: provided as a solid compound

## CCCCC(F)(F)[C@@]1(O)CC[C@H]2[C@@H](CC(=O)[C@@H]2CCCCCCC(=O)O)O1 [Compound 1, 13,14-dihydro-15-keto-16,16-difluoro-PGE1]
[1]; D2O-CD3OD (1:1) adjusted to pH 2 with DCl, 1H-NMR, starting from solid bicyclic tautomer
  Ratio of monocyclic tautomer (%): 8.5%
[1]; pH2 solvent, bicyclic ring opened
  compound converted into the monocyclic tautomer: more than 5%
[2]
  proportion of the compound existing as the bicyclic structure: ~100%
